Values after ≈ are worked out from the molar mass of the structure shown. Like-named read-outs stand apart in the source and are kept apart here.
Legend:
[1] = tested on: P. aeruginosa (1051575); test: Potentiation of the doxycycline activity at 2 μg/mL; assay type: cell-based, Pseudomonas aeruginosa; conditions: in combination with doxycycline 2 μg/mL; 24 h, 37°
[2] = tested on: P. aeruginosa ATCC27853; test: MIC determination by microplate dilution, P. aeruginosa human strain; assay type: cell-based, Pseudomonas aeruginosa; conditions: Pseudomonas aeruginosa, ATCC27853, Gram-negative, Mueller-Hinton medium, 24 h, 37° C.
Summary of the method: (§1)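 Twofold dilution series of compounds (stock 5 mg/mL, DMSO/methanol 50/50) in Mueller-Hinton medium, seeded with bacteria at OD 0.01 from 24 h, 37 °C precultures. After 24 h at 37 °C under humid atmosphere, MIC derived from OD at 620 nm; run in duplicate.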

[3] = tested on: E. coli (1956); test: MIC determination by microplate dilution, E. coli animal strain; assay type: cell-based, Escherichia coli; conditions: Escherichia coli, Gram-negative, Mueller-Hinton medium, 24 h, 37° C.
Summary of the method: as §1

[4] = tested on: CHO-K1 cells; test: WST1 cytotoxicity test on CHO-K1 cells; assay type: cell-based, Chinese hamster; conditions: Cricetulus griseus
Summary of the method: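 CHO-K1 cells seeded 24 h, then exposed to increasing compound concentrations in duplicate for 24 h at 37 °C, 5% CO2. Viability by WST-1 reduction (20 min, 37 °C), absorbance at 450 nm. IC50 = concentration reducing viability by 50%, from nonlinear regression of dose-response.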

[5] = tested on: E. faecalis ATCC29212; test: MIC determination by microplate dilution, E. faecalis human strain; assay type: cell-based, Enterococcus faecalis; conditions: Enterococcus faecalis, ATCC29212, Gram-positive, Mueller-Hinton medium, 24 h, 37° C.
Summary of the method: as §1

[6] = tested on: S. aureus ATCC25923; test: MIC determination by microplate dilution, S. aureus human strain; assay type: cell-based, Staphylococcus aureus; conditions: Staphylococcus aureus, ATCC25923, Gram-positive, Mueller-Hinton medium, 24 h, 37° C.
Summary of the method: as §1

[7] = tested on: E. coli ATCC28922; test: MIC determination by microplate dilution, E. coli human strain; assay type: cell-based, Escherichia coli; conditions: Escherichia coli, ATCC28922, Gram-negative, Mueller-Hinton medium, 24 h, 37° C.
Summary of the method: as §1

[8] = tested on: P. aeruginosa (1051575); test: MIC determination by microplate dilution, P. aeruginosa animal strain; assay type: cell-based, Pseudomonas aeruginosa; conditions: Pseudomonas aeruginosa, Gram-negative, Mueller-Hinton medium, 24 h, 37° C.
Summary of the method: as §1

[9] = tested on: A. niger; test: Antifungal activity, cascade microdilution, A. niger; assay type: cell-based; conditions: Aspergillus niger, 24 h, read-out: IC50 (μg/mL) A. niger
Experimental: 1) Preparation of the Preculture
A negative control (2 mL of sterile Mueller Hinton MH culture medium)
A positive control (1980 μL of culture medium+20 μL of yeast or fungal suspension) from a thawed biological strain (the biological strains are stored at −80° C. in glycerol).
The tubes were incubated at 37° C. for 24 hours at 100 rpm.
The chemical compounds to be tested were prepared at a concentration of 5 mg/mL (in the form of the hydrochloride in water).
2) Preparation of the Microplate for the Determination of the Minimum Inhibitory Concentration (MIC)
The MIC is obtained by using the cascade microdilution method in sterile 96-well plates. 100 μL of MH culture medium are first placed in each well, and 8 μL of the solution (5 mg/mL) of the test molecule are then added to the first wells. The volume is made up with medium to obtain a total volume of 200 μL in these wells. Serial dilution is then performed by taking 100 μL from the first well, and so on successively from well to well. 100 μL of inoculate containing 2-6×10^5 CFU of yeast or fungi are then added to each well. Certain wells are reserved for positive and negative controls.
3) Reading of the Results
After incubation, an optical density (OD) reading was taken in an iEMS plate spectrophotometer at 620 nm. Calculation of the minimum inhibitory concentration (MIC) was performed.

[10] = tested on: S. aureus (340); test: MIC determination by microplate dilution, S. aureus animal strain; assay type: cell-based, Staphylococcus aureus; conditions: Staphylococcus aureus, Gram-positive, Mueller-Hinton medium, 24 h, 37° C.
Summary of the method: as §1

[11] = tested on: C. albicans; test: Antifungal activity, cascade microdilution, C. albicans; assay type: cell-based, Candida albicans; conditions: Candida albicans, 24 h, read-out: IC50 (μg/mL) C. albicans
[12] = tested on: S. intermedius (1051997); test: MIC determination by microplate dilution, S. intermedius animal strain; assay type: cell-based, Staphylococcus intermedius; conditions: Staphylococcus intermedius, Gram-positive, Mueller-Hinton medium, 24 h, 37° C.
Summary of the method: as §1

[13] = tested on: P. aeruginosa (1051575); test: Potentiation of chloramphenicol activity; assay type: cell-based, Pseudomonas aeruginosa; conditions: concentration of compound required with chloramphenicol 4 μg/mL
Experimental: (§2) This method requires the use of a 96-well plate: 100 μL of a liquid culture medium are placed in each well and then seeded with the microbial suspension prepared previously. The required volume to be seeded is calculated for an OD of 0.01, which corresponds to about 5×10^6 bacteria in each well. In this plate, the first line corresponds to a negative control (200 μL of sterile culture medium in each well), the second line corresponds to a positive control (100 μL of sterile culture medium+100 μL of the bacterial suspension), and the third line contains 192 μL of culture medium; 8 μL of compound of formula (I) to be tested are placed in each well. […] 92 μL of bacterial suspension are then added to lines 3 to 8. […] After 24 hours of incubation at 37° C., 40 μL of nitro tetrazolium iodide are added to each well to reveal the presence of live bacteria by staining the medium pink.
(§3) The procedure is identical to that indicated in Example 5 above. […]
(§4) The results are given in table V. They indicate the concentration of compound of formula (I) required to be able to restore the activity of the antibiotic under consideration.

[14] = tested on: P. aeruginosa (1051575); test: Potentiation of erythromycin activity; assay type: cell-based, Pseudomonas aeruginosa; conditions: concentration of compound required with erythromycin 2 μg/mL
Experimental: This method requires the use of a 96-well plate: 100 μL of a liquid culture medium are placed in each well and then seeded with the microbial suspension prepared previously. The required volume to be seeded is calculated for an OD of 0.01, which corresponds to about 5×10^6 bacteria in each well. In this plate, the first line corresponds to a negative control (200 μL of sterile culture medium in each well), the second line corresponds to a positive control (100 μL of sterile culture medium+100 μL of the bacterial suspension), and the third line contains 192 μL of culture medium; 8 μL of compound of formula (I) to be tested are placed in each well. Thereafter, a cascade dilution is performed from this line. […] (1 mg dissolved in 20 mL) are then added to each well of the lines 3 to 8 to obtain a final antibiotic concentration of 2 μg/mL. 92 μL of bacterial suspension are then added to lines 3 to 8. […] After 24 hours of incubation at 37° C., 40 μL of nitro tetrazolium iodide are added to each well to reveal the presence of live bacteria by staining the medium pink.
The procedure is identical to that indicated in Example 5 above. 8 μL of an antibiotic solution under consideration (1 mg dissolved in 20 mL) are added to obtain a final antibiotic concentration of 2 μg/mL instead of 8 μL of a doxycycline solution.
as §4

[15] = tested on: P. aeruginosa (1051575); test: Potentiation of ampicillin activity; assay type: cell-based, Pseudomonas aeruginosa; conditions: concentration of compound required with ampicillin 4 μg/mL
Experimental: as §2, §3, §4

[16] = CHO-K1, 24 h, read-out: IC50 (μg/mL) CHO
[17] = CHO-K1, read-out: IC50 (μg/mL) CHO

## COC(=O)CC[C@@H](C)[C@H]1CCC2C3C(CC[C@@]21C)[C@@]1(C)CC[C@H](NCCCN(CCCN)CCCN)CC1C[C@H]3O (stereo partly drawn) [(38), methyl 3β-(tris(3-aminopropyl)amine)chenodeoxycholate]
[1]
  MIC - P. aeruginosa (1051575): content of compound of formula (I) to restore the doxycycline activity (at 2 μg/mL): 2 µg/mL
[2]
  MIC: 28 µg/mL (≈ 48.5 µM)
[3]
  MIC: 14 µg/mL (≈ 24.3 µM)
[4]; [16]
  IC50: 17 µg/mL (≈ 29.5 µM)
[4]; [17]
  IC50: 17 µg/mL (≈ 29.5 µM)
[5]
  MIC: 3.5 µg/mL (≈ 6.07 µM)
[6]
  MIC: 14 µg/mL (≈ 24.3 µM)
[7]
  MIC: 28 µg/mL (≈ 48.5 µM)
[8]
  MIC: 14 µg/mL (≈ 24.3 µM)
[9]
  IC50: 4 µg/mL (≈ 6.93 µM)
[10]
  MIC: 14 µg/mL (≈ 24.3 µM)
[11]
  IC50: 115 µg/mL (≈ 199 µM)
[12]
  MIC: 29 µg/mL (≈ 50.3 µM)

## CC(C)OC(=O)CC[C@@H](C)[C@H]1CCC2C3C(C[C@H](O)[C@@]21C)[C@@]1(C)CC[C@H](NCCCN(C)CCCN)CC1C[C@H]3O (stereo partly drawn) [(36), isopropyl 3β-(bis(3-aminopropyl)methylamine)cholate]
[13]
  MIC P. aeruginosa (1051575), compound + chloramphenicol: 8 µg/mL
[14]
  MIC P. aeruginosa (1051575), compound + erythromycin: 58 µg/mL
[1]
  MIC - P. aeruginosa (1051575): content of compound of formula (I) to restore the doxycycline activity (at 2 μg/mL): 4 µg/mL
[2]
  MIC: 58 µg/mL (≈ 100 µM)
[3]
  MIC: 58 µg/mL (≈ 100 µM)
[5]
  MIC: 58 µg/mL (≈ 100 µM)
[6]
  MIC: 29 µg/mL (≈ 50.2 µM)
[7]
  MIC: 58 µg/mL (≈ 100 µM)
[15]
  MIC P. aeruginosa (1051575), compound + ampicillin: 58 µg/mL
[8]
  MIC: 58 µg/mL (≈ 100 µM)
[10]
  MIC: 29 µg/mL (≈ 50.2 µM)
[12]
  MIC: 14 µg/mL (≈ 24.2 µM)

## CC(C)OC(=O)CC[C@@H](C)[C@H]1CCC2C3C(CC[C@@]21C)[C@@]1(C)CC[C@H](NCCCNCCCNCCCN)CC1C[C@H]3O (stereo partly drawn) [Compound (10), isopropyl 3β-norsperminochenodeoxycholate]
[1]
  MIC - P. aeruginosa (1051575): content of compound of formula (I) to restore the doxycycline activity (at 2 μg/mL): 2 µg/mL
[3]
  MIC: 10 µg/mL (≈ 16.5 µM)
[4]; [16]
  IC50: 85 µg/mL (≈ 141 µM)
[4]; [17]
  IC50: 85 µg/mL (≈ 141 µM)
[5]
  MIC: 8 µg/mL (≈ 13.2 µM)
[6]
  MIC: 4 µg/mL (≈ 6.61 µM)
[7]
  MIC: 16 µg/mL (≈ 26.4 µM)
[8]
  MIC: 4 µg/mL (≈ 6.61 µM)
[9]
  IC50: 4 µg/mL (≈ 6.61 µM)
[10]
  MIC: 2 µg/mL (≈ 3.31 µM)
[11]
  IC50: 2 µg/mL (≈ 3.31 µM)
[12]
  MIC: 0.8 µg/mL (≈ 1.32 µM)
